row,SMILES,melting point
1,CCOC(=O)c1nc(C)n2c1CN=C(c1ccccn1)c1cc(Br)ccc1-2,240 to 243 °C
2,C=C1c2ccccc2C2(CCN(C)CC2)c2cccc(O)c21,117 to 120 °C
3,COC1=C(c2cccc(C(F)(F)F)c2)C(CCC(=O)O)OC1=O (stereo unspecified),132 °C
4,CCOc1cc2cc(C(=O)N3CC(CCl)c4c3cc(N3C(=O)c5ccccc5C3=O)c3ncccc43)[nH]c2c(OCC)c1OCC (stereo unspecified),189 to 191 °C
5,CC(C)c1ccccc1N1C(=O)CS/C1=N\C(=O)Nc1ccc(-c2nnc(-c3ccc(OC(F)(F)C(F)(F)F)cc3)o2)cc1,244 to 247 °C
6,COc1ccc(S(=O)(=O)N(CC(N)=O)c2ccc(Cl)cc2Cc2ccccc2C(F)(F)F)cc1OC,133 °C
7,CCCc1c(OCCOc2ccc(C(=O)O)cc2)ccc(C(C)=O)c1O,175 to 176 °C
8,CC1=CC(O)C(OC(=O)c2nc[nH]c2C)C(C)(C)CC1=O (stereo unspecified),201 to 202 °C
9,CC1(C)CCC(Cc2ccc(Cl)cc2)=C(O)C1=O,80 to 82 °C
10,CC(C)(C)CCNc1cccc(-c2ccnc3c(C(=O)c4cccs4)cnn23)c1,156 to 158 °C
11,COC=C(C(=O)OC)c1ccccc1CBr,88 to 90 °C
12,COCCOCCOc1cccc2c1C1(COc3cc4c(cc31)OCCO4)C(=O)N2C (stereo unspecified),109 to 110 °C
13,COC(=O)NCc1cccc(-c2ccccc2)c1,49 to 52 °C
14,CCCCOCCOc1ccc(-c2ccc(N3CCCC3)c(C(C)=O)c2)cc1,87 to 88 °C
15,Cc1oc(-c2ccccc2)nc1COc1cc(CO)ccn1,100 to 101 °C
16,O=[N+]([O-])N=C1NCCN1Cc1ccc(OCC(F)(F)F)nc1,109 to 112 °C
17,Cc1nnc(-c2ccc3occ(-c4ccccc4Cl)c3c2)o1,83 to 84 °C
18,O=C(Cn1nc(-c2ccccc2O)nc1-c1ccccc1O)NC(CO)CO,212 to 214 °C
19,c1ccc(-c2nc(CCCCCCc3nnn[nH]3)oc2-c2ccccc2)cc1,132 °C
20,CC1(C)OC(=O)Nc2ccc(-c3cc(C#N)ccc3F)cc21,229 to 230 °C
21,CC(=O)NC(C)(C)c1ccc(CN2CCN(c3ccccc3)CC2)cc1,110 to 111 °C
22,CN(C)CCOc1ccc2[nH]c(C(=O)N3CC(CCl)c4c3cc([N+](=O)[O-])c3cc(S(C)(=O)=O)ccc43)cc2c1 (stereo unspecified),250 to 252 °C
23,COCC1CN(c2ccc(C3CCCCC3)c(N)c2)C(=O)O1 (racemic),130 to 132 °C
24,O=C(O)[C@@H]1CC[C@H](c2ccccc2)N1C(=O)CCS,61 to 64 °C
25,COc1c2c(c(OC)c(OC)c1OC)CCC(CCn1ccccc1=O)CC2,84 to 87 °C
26,CCOC(=O)NCC(=O)c1ccc(O)cc1,137 to 140 °C

row,SMILES,melting point
1,CCOC(=O)[C@H](CCSC)NC(=O)C1(Br)SC=C(Br)C1Br (stereo partly specified),80 to 82 °C
2,CN1OC(CNc2ccccc2)CC1(Cn1ccnc1)c1ccc(Cl)cc1 (stereo unspecified),159 to 160 °C
3,CCCCCCCCCCCCC(C(=O)NO)S(=O)(=O)c1ccc(OC)cc1 (stereo unspecified),114 °C
4,Cc1ccc(S(=O)(=O)Nc2ccc(F)cc2[N+](=O)[O-])cc1,118 °C
5,Cc1ccc(C(=O)NCc2ccc(Br)cc2F)c(OCC(=O)O)c1,188 to 189 °C
6,CC(=O)OC(COc1ccc(C(=O)O)c(O)c1)c1ccc2c(c1)C(C)(C)CCC2(C)C (stereo unspecified),160 to 161 °C
7,Cn1c(=O)oc2cc3c(cc21)OCC31C(=O)Nc2ccccc21 (stereo unspecified),> 250 °C
8,NC(c1ncn(N)n1)C1CCN(CC2COc3ccccc3O2)CC1 (stereo unspecified),157 to 158 °C
9,C=CC(=O)NC(C)(C)c1ccc(OCc2ccccc2)cc1,116 to 117 °C
10,Cc1ccc2c(c1)N=C(N1CCN(C)CC1)c1cscc1O2,222 °C
11,O=C1C=CC2=CN=C(c3ccco3)N3CCC(=C23)N1,278 to 279 °C
12,COc1ccccc1CNc1ccc2c(CNC(=O)c3ccc(F)cc3)cccc2n1,162 °C
13,CN(CCCNc1ncc(Cc2ccc(O)cc2)c(=O)[nH]1)c1ccccn1,109 to 111 °C
14,CCCCCCCCCCCCCCCCN[C@H](C(=O)N[C@H](C(=O)O)C(C)C)C(C)C,120 to 123 °C
15,COc1cc(N)c(S(C)(=O)=O)cc1C(=O)O,178 to 180 °C
16,N#CC(C#N)=Cc1ccc(C=O)cc1,142 °C
17,CC(=O)Nc1cccc2c1CCN(C(C)=O)C2,154 to 156 °C
18,CN1C(=O)Cc2cccc(Cl)c21,111 to 113 °C
19,COc1cc2c(cc1OC)N(C(=O)CCSC(C)=O)C(C(=O)O)CC2 (stereo unspecified),104 to 107 °C
20,CN1CCC[C@H](OCc2cc(C(F)(F)F)cc(C(F)(F)F)c2)[C@@H]1c1ccccc1,40 to 42 °C
21,CN1C(=O)CC[C@]2(C)c3ccc(CCc4ccc5ccccc5c4)cc3CC[C@@H]12,109 to 110 °C
22,Cn1ccc(C(Cl)Cl)n1,38.5 to 40 °C
23,COc1cc(C=CCO)ccc1OCc1ccccc1,81 to 82 °C
24,COc1cc(-c2ccc(C#N)o2)ccc1Br,76 to 77 °C
25,O=S1(=O)NCN(C2CC2)c2cc(F)c(Cl)cc21,155 to 158 °C
